In one test the target is T1, RARalpha (Homo sapiens, UniProt P10276).
T1 sequence (P10276 183-417 limits assumed): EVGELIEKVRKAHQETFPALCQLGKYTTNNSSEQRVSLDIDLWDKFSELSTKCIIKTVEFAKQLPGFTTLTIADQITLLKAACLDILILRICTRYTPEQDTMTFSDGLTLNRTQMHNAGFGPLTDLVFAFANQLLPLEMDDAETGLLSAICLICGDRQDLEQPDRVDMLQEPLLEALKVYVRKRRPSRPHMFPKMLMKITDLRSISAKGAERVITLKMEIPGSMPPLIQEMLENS
As to the kind of experiment: Transactivation assay (luciferase reporter, HeLa stable transfectants), RARalpha. In kind it is cell-based. An excerpt:
[The procedure below names another target; the source lists this target under the same test.] (§1) The compounds according to the invention have activating properties on RARbeta-type receptors. This RARbeta receptor-activating activity can in particular be measured in a transactivation assay by means of the dissocation constant Kdapp (apparent), the AC50 (concentration giving 50% of the activity of the reference molecule) and also by means of the % activation.
(§2) The activation of receptors with an agonist (activator) in HeLa cells leads to the expression of a reporter gene, luciferase, which, in the presence of a substrate, generates light. The activation of the receptors can thus be measured by quantifying the luminescence produced after incubating the cells in the presence of a reference antagonist. Activating products will displace the antagonist from its site, thus allowing activation of the receptor. The activity is measured by quantifying the increase in light produced. This measurement makes it possible to determine the activating activity of the compound according to the invention.
(§3) In this study, a constant is determined which represents the affinity of the molecule for the receptor. […]
(§4) These crossed curves make it possible to determine the AC50 values (concentration at which 50% activation is observed) for the reference ligand at various concentrations of test product. These AC50 values are used to calculate the Schild regression by plotting a straight line corresponding to the Schild equation (“quantitation in receptor pharmacology” Terry P. Kenakin, Receptors and Channels, 2001, 7, 371-385).
(§5) In the case of an agonist, an AC50 value (concentration giving 50% activity) is calculated by plotting the curve of the product at the concentration of the reference ligand that gives 80% activation. The % activation which corresponds to the maximum level of activity obtained is also measured. […]
(§6) The culture medium is removed by turning the plates over, and 100 μl of a 1:1 PBS/luciferin mixture are added to each well. After 5 minutes, the plates are read using a luminescence reader.
For orientation: In a reporter assay the amount or activity of a reporter protein is the signal.

In test [1] the target is T2, RARbeta (Homo sapiens, UniProt P10826).
T2 construct: RARbeta Kdapp; RARbeta AC50; other: maximum level of activity obtained, relative to 100% control total agonist
T2 sequence (P10826 183-417 limits assumed): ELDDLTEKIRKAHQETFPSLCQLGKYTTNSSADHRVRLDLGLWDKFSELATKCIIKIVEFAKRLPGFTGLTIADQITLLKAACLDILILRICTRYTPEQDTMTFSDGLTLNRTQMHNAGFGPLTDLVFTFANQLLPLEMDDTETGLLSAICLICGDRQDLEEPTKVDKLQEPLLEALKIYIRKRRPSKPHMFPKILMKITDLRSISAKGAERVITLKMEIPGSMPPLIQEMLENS
The test can be described thus: Transactivation assay (luciferase reporter, HeLa stable transfectants), RARbeta. In kind it is cell-based.
Description: as §1, §2
(§7) In this study, a constant is determined which represents the affinity of the molecule for the receptor. Since this value can fluctuate depending on the basal activity and the expression of the receptor, it is referred to as the Kd apparent (Kdapp).
(§8) To determine this constant, “crossed curves” of the test product against a reference antagonist, otherwise referred to as reference ligand, 4-(5,5-dimethyl-8-p-tolyl-5,6-dihydronaphthalen-2-ylethynyl)benzoic acid, are realized in 96-well plates. The test product is used at 10 concentrations and the reference antagonist at 7 concentrations. In each, the cells are in contact with a concentration of the test product and with a concentration of the reference antagonist, 4-(5,5-dimethyl-8-p-tolyl-5,6-dihydronaphthalen-2-ylethynyl)benzoic acid. […]
as §4, §5, §6

Test [2] relates to RARbeta. The test is described as above. In kind it is cell-based, human. Particulars: RARbeta Kdapp to RARalpha or RARgamma Kdapp.
Description: as §1, §2, §7, §8, §4, §5, §6

A further test has as its target T3, RARgamma (Homo sapiens, UniProt P13631).
T3 sequence (P13631 185-419 limits assumed): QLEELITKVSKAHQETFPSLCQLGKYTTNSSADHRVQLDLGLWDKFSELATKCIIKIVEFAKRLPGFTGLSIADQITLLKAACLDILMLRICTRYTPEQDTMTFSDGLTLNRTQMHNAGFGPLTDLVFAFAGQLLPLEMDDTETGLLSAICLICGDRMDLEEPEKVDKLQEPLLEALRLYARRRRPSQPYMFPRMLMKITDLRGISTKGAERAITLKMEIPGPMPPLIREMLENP
The test can be described thus: Transactivation assay (luciferase reporter, HeLa stable transfectants), RARgamma. In kind it is cell-based.
Description: [The procedure below names another target; the source lists this target under the same test.] as §1, §2, §3, §4, §5, §6

[3] abbreviates: concentration giving 50% activity, at the reference ligand concentration giving 80% activation, HeLa cells.
Setting [4] is: maximum level of activity obtained, relative to 100% control total agonist.

pKd: −log10 of the molar value.

A word on the AC50: it is the midpoint of the concentration-response curve, whichever way the signal moves. A higher AC50 goes with weaker potency. With `CC1(C)OCC(COc2ccc(-c3ccc4cc(C(=O)O)ccc4c3)cc2C23CC4CC(CC(C4)C2)C3)O1` (stereo not shown) [Ex. 1, 6-[3-adamantan-1-yl-4-(2,2-dimethyl[1,3]dioxolan-4-ylmethoxy)phenyl]naphthalene-2-carboxylic acid], the pKd at RARalpha (apparent Kd from Schild regression, crossed curves against reference antagonist, HeLa cells, read-out: RARalpha Kdapp) was 5.10; on RARbeta [1] (apparent Kd from Schild regression, crossed curves against reference antagonist, HeLa cells, read-out: RARbeta Kdapp) it was 7.22; on RARgamma (apparent Kd from Schild regression, crossed curves against reference antagonist, HeLa cells, read-out: RARgamma Kdapp), 5.40. Moreover, the half-maximal activity concentration (AC50) at RARalpha (setting [3]) is 1800 nM; on RARbeta [1] (setting [3]), 12 nM; at RARgamma (setting [3]), 2000 nM. The RARalpha % activation at RARalpha (setting [4]) is reported as 20%. Besides, the RARbeta % activation on RARbeta [1] (setting [4]) was found to be 100%. Besides, in the test with RARbeta [2], the “ratio of the Kdapp values R” value is 0.015. The molecule also came in with an RARgamma % activation at RARgamma (setting [4]) of 40%.

For the origin of these results see patent publication US7517907B2, “Pharmaceutical/cosmetic compositions comprising a novel RARbeta receptor-activating ligand” (Galderma Research & Development, priority 2003, dated 2009).
